Where two headings read alike, the source gives them in different places.
Legend:
human PDE2A1 = human PDE2A1 (Homo sapiens (Human), UniProt O00408); assay: biochemical; assay type: biochemical
Rhesus PDE2A3 = Rhesus PDE2A3 (Macaca mulatta, UniProt B3VTJ2); assay: PDE2 fluorescence polarization (IMAP FP) inhibition assay, rhesus enzyme; assay type: biochemical, rhesus macaque
[1] = reported in Brandon et al. 2007; cited from earlier work
[2] = Lab B, read-out: Human PDE2 Ki (nM) Lab B
[3] = Lab A, read-out: Rhesus PDE2 Ki (nM) Lab A
[4] = Lab B, read-out: Rhesus PDE2 Ki (nM) Lab B
[5] = read-out: Human PDE2 Ki (nM) Lab B
[6] = Lab A, read-out: Human PDE2 Ki (nM) Lab A

Sequence of Rhesus PDE2A3 (B3VTJ2 1-941): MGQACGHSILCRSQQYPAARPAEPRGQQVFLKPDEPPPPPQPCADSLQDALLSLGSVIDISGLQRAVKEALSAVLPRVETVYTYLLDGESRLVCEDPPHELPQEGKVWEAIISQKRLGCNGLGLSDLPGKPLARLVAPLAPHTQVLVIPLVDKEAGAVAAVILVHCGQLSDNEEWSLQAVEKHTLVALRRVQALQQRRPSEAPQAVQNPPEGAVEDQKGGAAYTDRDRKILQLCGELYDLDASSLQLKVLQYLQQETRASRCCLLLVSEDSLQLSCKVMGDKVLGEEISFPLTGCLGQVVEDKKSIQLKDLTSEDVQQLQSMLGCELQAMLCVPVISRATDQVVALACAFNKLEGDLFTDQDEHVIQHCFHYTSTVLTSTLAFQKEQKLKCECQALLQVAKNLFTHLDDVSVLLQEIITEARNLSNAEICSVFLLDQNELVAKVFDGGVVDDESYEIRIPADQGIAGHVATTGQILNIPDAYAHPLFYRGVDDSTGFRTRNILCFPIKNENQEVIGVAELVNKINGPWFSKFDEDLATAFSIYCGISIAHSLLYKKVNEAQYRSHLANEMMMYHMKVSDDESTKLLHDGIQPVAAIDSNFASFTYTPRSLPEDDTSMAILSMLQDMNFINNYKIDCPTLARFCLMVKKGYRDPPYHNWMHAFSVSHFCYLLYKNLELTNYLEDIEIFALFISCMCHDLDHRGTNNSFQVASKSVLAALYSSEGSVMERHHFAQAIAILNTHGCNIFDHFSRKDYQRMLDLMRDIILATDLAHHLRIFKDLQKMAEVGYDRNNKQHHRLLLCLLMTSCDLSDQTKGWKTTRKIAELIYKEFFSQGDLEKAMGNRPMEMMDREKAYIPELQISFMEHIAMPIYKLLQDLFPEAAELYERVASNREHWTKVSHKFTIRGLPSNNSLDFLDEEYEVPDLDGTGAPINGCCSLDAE
Sequence of human PDE2A1 (O00408 other isoform, or with tags, fused parts or gaps): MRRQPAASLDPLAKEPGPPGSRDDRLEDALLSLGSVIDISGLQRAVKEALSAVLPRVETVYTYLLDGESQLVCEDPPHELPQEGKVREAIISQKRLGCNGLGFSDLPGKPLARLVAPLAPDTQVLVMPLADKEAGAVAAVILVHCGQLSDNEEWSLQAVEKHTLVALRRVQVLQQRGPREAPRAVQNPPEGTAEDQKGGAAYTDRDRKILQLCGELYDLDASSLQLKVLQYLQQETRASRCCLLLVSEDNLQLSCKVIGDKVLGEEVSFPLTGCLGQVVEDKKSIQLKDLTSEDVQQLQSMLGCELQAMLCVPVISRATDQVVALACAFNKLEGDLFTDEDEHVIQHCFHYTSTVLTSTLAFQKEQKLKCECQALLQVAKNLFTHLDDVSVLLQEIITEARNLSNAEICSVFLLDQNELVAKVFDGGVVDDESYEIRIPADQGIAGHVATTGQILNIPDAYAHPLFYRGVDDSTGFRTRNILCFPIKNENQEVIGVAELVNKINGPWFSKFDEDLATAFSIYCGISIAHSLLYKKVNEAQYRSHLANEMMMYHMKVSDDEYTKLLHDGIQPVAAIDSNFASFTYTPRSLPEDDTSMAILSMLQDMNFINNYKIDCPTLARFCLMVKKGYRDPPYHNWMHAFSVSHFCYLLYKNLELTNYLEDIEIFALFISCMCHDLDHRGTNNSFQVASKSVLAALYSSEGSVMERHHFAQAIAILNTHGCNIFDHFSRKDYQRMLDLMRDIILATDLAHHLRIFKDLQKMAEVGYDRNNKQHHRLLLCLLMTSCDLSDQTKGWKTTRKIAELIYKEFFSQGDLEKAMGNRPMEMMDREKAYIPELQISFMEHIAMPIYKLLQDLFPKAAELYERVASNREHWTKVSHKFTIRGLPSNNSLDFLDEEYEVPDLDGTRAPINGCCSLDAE

Row | SMILES | Ki (human PDE2A1; [2]) [nM] | other results
1 | Cc1cc(NC2(c3ccc(C(F)(F)F)c(F)c3)CC2)n2nccc2n1 [Example 47, N-{1-[3-Fluoro-4-(trifluoromethyl)phenyl]cyclopropyl}-5-methylpyrazolo[1,5-a]pyrimidin-7-amine] | 199 | –
2 | CC(Nc1nc(Cl)nc2c1cnn2C)c1ccc(-n2cccn2)cc1 (stereo not shown) [Example 7, 6-Chloro-1-methyl-N-{1-[4-(1H-pyrazol-1-yl)phenyl]-ethyl}-1H-pyrazolo[3,4-d]-pyrimidin-4-amine] | – | Ki (Rhesus PDE2A3; [3]): 2650 nM
3 | Cc1nc(N(C)C2(c3ccc(C(F)(F)F)cc3)CC2)c2cnn(C)c2n1 [Example 26, N,1,6-Trimethyl-N-{1-[4-(trifluoromethyl)phenyl]cyclopropyl}-1H-pyrazolo[3,4-d]pyrimidin-4-amine] | 4.9 | –
4 | Cc1nc(NC2(c3ccc(C(F)(F)F)cc3F)CC2)c2cnn(C)c2n1 [Example 24, N-{1-[2-Fluoro-4-(trifluoromethyl)-phenyl]cyclo-propyl}-1,6-dimethyl-1H-pyrazolo[3,4-d]-pyrimidin-4-amine] | 29 | –
5 | CCC(Nc1nc(Cl)nc2c1cnn2C)c1ccc(C(C)C)cc1 (stereo not shown) [Example 6, 6-Chloro-1-methyl-N-{1-[4-(1-methylethyl)-phenyl]propyl}-1H-pyrazolo-[3,4-d]pyrimidin-4-amine] | – | Ki (Rhesus PDE2A3; [3]): 468 nM
6 | CC(Nc1nc(Cl)nc2c1cnn2C(C)C)c1ccc(C(F)(F)F)cc1 (stereo not shown) [Example 18, 6-Chloro-1-(1-methylethyl)-N-{1-[4-(trifluoromethyl)phenyl]ethyl}-1H-pyrazolo[3,4-d]pyrimidin-4-amine] | – | Ki (Rhesus PDE2A3; [3]): 1970 nM
7 | Cc1nc(NC2(c3ccc(SC(F)(F)F)cc3)CC2)c2cnn(C)c2n1 [Example 23, 1,6-Dimethyl-N-(1-{4-[(trifluoromethyl)-sulfanyl]phenyl}-cyclopropyl)-1H-pyrazolo[3,4-d]-pyrimidin-4-amine] | 16 | Ki (Rhesus PDE2A3; [4]): 20 nM
8 | Cn1ncc2c(NC3(c4ccc(C(F)(F)F)cc4)CC3)nc(C#N)nc21 [Example 29, 1-Methyl-4-{1-[4-(trifluoromethyl)phenyl]cyclopropylamino}-1H-pyrazolo[3,4-d]pyrimidine-6-carbonitrile] | 39 | Ki (Rhesus PDE2A3; [4]): 47 nM
9 | CN(Cc1ccc(C(F)(F)F)cc1)c1nc(Cl)nc2c1cnn2C [Example 15, 6-Chloro-N,1-dimethyl-N-[4-(trifluoromethyl)-benzyl]-1H-pyrazolo-[3,4-d]pyrimidin-4-amine] | – | Ki (Rhesus PDE2A3; [3]): 997 nM
10 | Cc1nc(NC2(c3ccc(OC(F)(F)F)c(F)c3)CC2)c2cnn(C)c2n1 [Example 22] | 35 | Ki (Rhesus PDE2A3; [4]): 55 nM
11 | Cc1nc(NC2(c3ccc(C(F)(F)F)c(F)c3)CC2)c2nc[nH]c2n1 [Example 36, N-{1-[3-Fluoro-4-(trifluoromethyl)phenyl]cyclopropyl}-2-methyl-9H-purin-6-amine] | 206 | –
12 | CC(C)c1ccc(C(C)Nc2nc(Cl)nc3c2cnn3C)cc1 (stereo not shown) [Example 5, 6-Chloro-1-methyl-N-{1-[4-(1-methylethyl)-phenyl]ethyl}-1H-pyrazolo-[3,4-d]pyrimidin-4-amine] | – | Ki (Rhesus PDE2A3; [3]): 401 nM
13 | Cc1cc(N[C@@H](c2ccc(C(F)(F)F)c(F)c2)C(C)(C)C)n2nccc2n1 [Example 48, N-{(1R)-1-[3-Fluoro-4-(trifluoromethyl)phenyl]-2,2-dimethylpropyl}-5-methylpyrazolo[1,5-a]pyrimidin-7-amine] | 174 | –
14 | Cc1nc(NC2(c3ccc(C(F)(F)F)cc3)CCC2)c2cnn(C)c2n1 [Example 25, 1,6-Dimethyl-N-{1-[4-(trifluoro-methyl)phenyl]-cyclobutyl}-1H-pyrazolo[3,4-d]-pyrimidin-4-amine] | 430 | Ki (Rhesus PDE2A3; [4]): 358 nM
15 | Cc1cc(N[C@@H](c2ccc(C(F)(F)F)c(F)c2)C(C)(C)C)n2ncc(N)c2n1 [Example 42, N^7-{(1R)-1-[3-Fluoro-4-(trifluoromethyl)phenyl]-2,2-dimethylpropyl}-5-methylpyrazolo[1,5-a]pyrimidine-3,7-diamine] | 580 | –
16 | Cc1cc(NC2(c3ccc(C(F)(F)F)c(F)c3)CC2)n2ncc(N)c2n1 [Example 41, N^7-{1-[3-Fluoro-4-(trifluoromethyl)phenyl]cyclopropyl}-5-methylpyrazolo[1,5-a]pyrimidine-3,7-diamine] | 337 | –
17 | Cc1cc(N[C@@H](c2ccc(C(F)(F)F)c(F)c2)C(C)(C)C)n2ncc(CO)c2n1 [Example 46] | ~2640 | –
18 | Cc1cc(N[C@@H](c2ccc(C(F)(F)F)c(F)c2)C(C)(C)C)n2ncc(C#N)c2n1 [Example 40, 7-({(1R)-1-[3-Fluoro-4-(trifluoromethyl)phenyl]-2,2-dimethylpropyl}amino)-5-methylpyrazolo[1,5-a]pyrimidine-3-carbonitrile] | 462 | –

Row | SMILES | Ki (human PDE2A1; [2]) [nM] | other results
19 | Cn1ncc2c(NC3(c4ccc(C(F)(F)F)cc4)CC3)nc(C(F)(F)F)nc21 [Example 19, 1-Methyl-6-(trifluoromethyl)-N-(1-(4-(trifluoromethyl)phenyl)cyclopropyl)-1H-pyrazolo[3,4-d]pyrimidin-4-amine] | 67 | Ki (Rhesus PDE2A3; [4]): 80 nM
20 | Cc1nc(OC2(c3ccc(C(F)(F)F)cc3)CC2)c2cnn(C)c2n1 [Example 30, 1,6-Dimethyl-4-({1-[4-(trifluoromethyl)phenyl]cyclopropyl}oxy)-1H-pyrazolo[3,4-d]pyrimidine] | 32 | –
21 | Cc1cc(NC2(c3ccc(C(F)(F)F)c(F)c3)CC2)n2nc(CO)cc2n1 [Example 43, [7-({1-[3-Fluoro-4-(trifluoromethyl)phenyl]cyclopropyl}amino)-5-methylpyrazolo[1,5-a]pyrimidin-2-yl]methanol] | 169 | –
22 | Cc1cc(NC2(c3ccc(C(F)(F)F)c(F)c3)CC2)n2ncc(CO)c2n1 [Example 45, [7-({1-[3-Fluoro-4-(trifluoromethyl)phenyl]cyclopropyl}amino)-5-methylpyrazolo[1,5-a]pyrimidin-3-yl]methanol] | 682 | –
23 | Cc1cc(NC2(c3ccc(C(F)(F)F)c(F)c3)CC2)n2ccnc2n1 [Example 31, N-(1-(3-Fluoro-4-(trifluoromethyl)phenyl)cyclopropyl)-7-methylimidazo[1,2-a]pyrimidin-5-amine] | – | Ki (human PDE2A1; [5]): 55 nM
24 | CC(C)(O)C(Nc1nc(C(F)(F)F)cc2nccn12)c1ccc(C(F)(F)F)c(F)c1 (single isomer, unassigned) [Example 33, (R or S)-1-[3-Fluoro-4-(trifluoromethyl)phenyl]-2-methyl-1-{[7-(trifluoromethyl)imidazo[1,2-c]pyrimidin-5-yl]amino}propan-2-ol] | – | Ki (human PDE2A1; [5]): 1330 nM
25 | Cc1nc(NC2(c3ccc(C(F)(F)F)c(F)c3)CC2)c2ncn(C)c2n1 [Example 37, N-(1-(3-Fluoro-4-(trifluoromethyl)phenyl)cyclopropyl)-2,9-dimethyl-9H-purin-6-amine] | 115 | –
26 | CCN(Cc1ccc(C(F)(F)F)cc1)c1nc(Cl)nc2c1cnn2C [Example 16, 6-Chloro-N-ethyl-1-methyl-N-[4-(trifluoromethyl)-benzyl]-1H-pyrazolo-[3,4-d]pyrimidin-4-amine] | – | Ki (human PDE2A1; [6]): 429 nM; Ki (Rhesus PDE2A3; [3]): 866 nM
27 | Cc1cc(NC2(c3ccc(C(F)(F)F)c(F)c3)CC2)n2ncc(C#N)c2n1 [Example 39, 7-((1-(3-Fluoro-4-(trifluoromethyl)phenyl)cyclopropyl)amino)-5-methylpyrazolo[1,5-a]pyrimidine-3-carbonitrile] | 503 | –
28 | Cc1nc(N[C@@H](c2ccc(C(F)(F)F)c(F)c2)C(C)(C)C)c2nc[nH]c2n1 [Example 35] | 566 | –
29 | C[C@H](c1ccc(C(F)(F)F)cc1)N(C)c1nc(Cl)nc2c1cnn2C [Example 14, 6-Chloro-N,1-dimethyl-N-{(1R)-1-[4-(trifluoromethyl)phenyl]ethyl}-1H-pyrazolo[3,4-d]pyrimidin-4-amine] | – | Ki (human PDE2A1; [6]): 65 nM; Ki (Rhesus PDE2A3; [3]): 137 nM
30 | CC(C)(O)C(Nc1nc(C(F)(F)F)cc2nccn12)c1ccc(C(F)(F)F)c(F)c1 (single isomer, unassigned) [Example 34, (S or R)-1-[3-Fluoro-4-(trifluoromethyl)phenyl]-2-methyl-1-{[7-(trifluoromethyl)imidazo[1,2-c]pyrimidin-5-yl]amino}propan-2-ol] | – | Ki (human PDE2A1; [5]): > 2960 nM
31 | Cc1nc(NC2(c3ccc(C(F)(F)F)c(F)c3)CC2)c2cnn(CC(F)(F)F)c2n1 [Example 28, N-{1-[3-Fluoro-4-(trifluoromethyl)phenyl]cyclopropyl}-6-methyl-1-(2,2,2-trifluoroethyl)-1H-pyrazolo[3,4-d]pyrimidin-4-amine] | 76 | Ki (Rhesus PDE2A3; [4]): 98 nM
32 | CN(c1nc(Cl)nc2c1cnn2C)C1(c2ccc(C(F)(F)F)cc2)CC1 [Example 17, 6-Chloro-N,1-dimethyl-N-{1-[4-(trifluoromethyl)phenyl]cyclopropyl}-1H-pyrazolo[3,4-d]pyrimidin-4-amine] | 3.8 | Ki (Rhesus PDE2A3; [3]): 1.5 nM; Ki (Rhesus PDE2A3; [4]): 6 nM
33 | Cc1cc(N[C@@H](c2ccc(C(F)(F)F)c(F)c2)C(C)(C)C)n2ccnc2n1 [Example 32, (R)—N-(1-(3-Fluoro-4-(trifluoromethyl)phenyl)-2,2-dimethylpropyl)-7-methylimidazo[1,2-a]pyrimidin-5-amine] | 51 | –
34 | COc1ccc(Cc2nn3c([C@@H](CCCc4ccccc4)[C@@H](C)O)nc(C)c3c(=O)[nH]2)cc1OC [Bay 60-7550] | – | brain penetration [1]: limited
35 | Cc1nc(N[C@H](C)c2ccc(C(F)(F)F)cc2)c2cnn(C)c2n1 [Example 21, 1,6-Dimethyl-N-{(1R)-1-[4-(trifluoromethyl)-phenyl]ethyl}-1H-pyrazolo[3,4-d]-pyrimidin-4-amine] | – | Ki (human PDE2A1; [6]): 140 nM; Ki (Rhesus PDE2A3; [3]): 194 nM

From patent US10647727B2, “Substituted pyrazolo/imidazolo bicyclic compounds as PDE2 inhibitors” (Merck Sharp & Dohme Corp., priority 2015, dated 2020)
